# Values of other authors as cited in paper PMC8065136, “Elevated expression of the adhesion GPCR ADGRL4/ELTD1 promotes endothelial sprouting angiogenesis without activating canonical GPCR signalling” (Scientific Reports, 2021).
# Tested on: GPR97
# Description: Another possible explanation for the lack of detectable signalling pathways is that other means of activation need to be employed to activate the receptor. Among them mechanical forces or incubation of the full length receptor with a ligand that has not yet been identified. […] Examples include beclomethasone dipropionate on GPR97[45] or Gedunin- and Khivorin-derivatives on GPR56 and GPR114[46]. It is possible that endogenous small molecules could activate ADGRL4/ELTD1 irrespective of the existence of a functional tethered agoni ...
smiles,measurement,value
CCC(=O)OCC(=O)[C@@]1(OC(=O)CC)[C@@H](C)C[C@H]2[C@@H]3CCC4=CC(=O)C=C[C@]4(C)[C@@]3(Cl)[C@@H](O)C[C@@]21C [beclomethasone dipropionate],Activation of aGPCR,activate
